The results in this text go back to ChEMBL document CHEMBL5537178, “Discovery of TP0628103: A Highly Potent and Selective MMP-7 Inhibitor with Reduced OATP-Mediated Clearance Designed by Shifting Isoelectric Points” (J Med Chem, 2024).

Active and inactive are the calls of the source. The rule behind the calls is not given here.

Series [1] is described as follows: Plasma unbound drug concentration at steady state in UUO surgery-induced renal fibrosis C57BL/6J mouse model at 3 mg/kg/day, sc administered with mini osmotic pump measured after 3 days. The following applies: in vivo, 72 h, time 3 day. Type of series: ADME, organism-based.
Series [2] concerns the target T1, CYP3A (Homo sapiens, UniProt P08684+P20815+P24462+Q9HB55). The experiment in a line: Time dependent inhibition of CYP3A in human liver microsomes using midazolam as substrate at 10 uM by LC-MS/MS analysis relative to control. Type of series: ADME, Microsome. The note with it: probe midazolam, read-out: TDI. In general terms: Liver microsomes are vesicles of endoplasmic reticulum, rich in cytochrome P450 enzymes.

Series [3] can be described thus: Fraction unbound in rat. Type of series: ADME.
For series [4], the target named is T2, CYP2C19 (Homo sapiens, UniProt P33261). Briefly: Inhibition of CYP2C19 in human liver microsomes at 10 uM by LC-MS/MS analysis relative to control. Type of series: ADME, Microsome.
Series [5] concerns the target T3, CYP2C8 (Homo sapiens, UniProt P10632).
T3 sequence (P10632 whole entry): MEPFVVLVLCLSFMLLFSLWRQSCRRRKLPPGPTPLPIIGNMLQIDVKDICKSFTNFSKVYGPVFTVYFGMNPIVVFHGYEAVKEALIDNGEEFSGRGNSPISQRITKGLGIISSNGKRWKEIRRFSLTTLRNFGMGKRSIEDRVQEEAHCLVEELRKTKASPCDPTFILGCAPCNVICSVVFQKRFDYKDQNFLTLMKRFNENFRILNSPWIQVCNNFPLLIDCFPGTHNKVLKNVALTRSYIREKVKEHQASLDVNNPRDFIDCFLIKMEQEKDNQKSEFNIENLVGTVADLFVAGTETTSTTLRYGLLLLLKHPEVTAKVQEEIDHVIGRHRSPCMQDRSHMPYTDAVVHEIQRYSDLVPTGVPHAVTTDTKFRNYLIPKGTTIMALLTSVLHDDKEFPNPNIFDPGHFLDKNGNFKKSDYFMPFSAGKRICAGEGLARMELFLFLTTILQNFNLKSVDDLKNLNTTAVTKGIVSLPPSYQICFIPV
The experiment in a line: Time dependent inhibition of CYP2C8 in human liver microsomes at 10 uM by LC-MS/MS analysis relative to control. Type of series: ADME, Microsome. The following applies: read-out: TDI.

The next series deals with Collagenase 3 (Homo sapiens, UniProt P45452). The experiment in a line: Inhibition of recombinant human MMP13 assessed as enzyme activity by measuring fluorescence using fluorogenic peptide substrate.
Series [6] has as its target Voltage-gated inwardly rectifying potassium channel KCNH2 (Homo sapiens, UniProt Q12809). Briefly: Inhibition of hERG at 10 uM. Type of series: toxicity.
In another series the target is Neutrophil collagenase (Homo sapiens, UniProt P22894). Briefly: Inhibition of recombinant human MMP8 assessed as enzyme activity by measuring fluorescence using fluorogenic peptide substrate.
A short description of series [7]: Plasma unbound drug concentration at steady state in UUO surgery-induced renal fibrosis C57BL/6J mouse model at 1 mg/kg/day, sc administered with mini osmotic pump measured after 3 days. Type of series: ADME, organism-based. The note with it: in vivo, 72 h, time 3 day.
The test system of another series is Mus musculus. The experiment in a line: Antifibrotic effect in UUO surgery-induced renal fibrosis C57BL/6J mouse model assessed as reduction in renal collagen at 0.3 to 3 mg/kg/day, sc administered with mini osmotic pump measured after 7 days. Type of series: functional, organism-based. The following applies: dose 0.3-3 mg/kg/day, time 7.0 day.
In the next series the target is T4, CYP1A2 (Homo sapiens, UniProt P05177).
T4 sequence (P05177 whole entry): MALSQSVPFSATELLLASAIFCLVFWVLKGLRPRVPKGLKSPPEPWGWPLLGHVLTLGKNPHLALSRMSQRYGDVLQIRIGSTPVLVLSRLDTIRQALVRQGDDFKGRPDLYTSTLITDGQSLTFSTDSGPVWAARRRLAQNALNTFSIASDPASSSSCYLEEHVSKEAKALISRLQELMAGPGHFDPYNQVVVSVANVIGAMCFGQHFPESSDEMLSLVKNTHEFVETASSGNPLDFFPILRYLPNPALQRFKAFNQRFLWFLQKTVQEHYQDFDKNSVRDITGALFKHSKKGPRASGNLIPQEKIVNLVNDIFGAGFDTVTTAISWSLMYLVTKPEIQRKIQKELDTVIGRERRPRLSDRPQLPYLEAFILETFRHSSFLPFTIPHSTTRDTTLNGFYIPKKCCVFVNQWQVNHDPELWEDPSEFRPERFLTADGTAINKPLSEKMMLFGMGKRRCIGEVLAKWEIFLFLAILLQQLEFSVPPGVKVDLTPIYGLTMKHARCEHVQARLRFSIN
The experiment in a line: Inhibition of CYP1A2 in human liver microsomes at 10 uM by LC-MS/MS analysis relative to control. Type of series: ADME, Microsome.

The target in the next series is T5, CYP2B6 (Homo sapiens, UniProt P20813).
T5 sequence (P20813 whole entry): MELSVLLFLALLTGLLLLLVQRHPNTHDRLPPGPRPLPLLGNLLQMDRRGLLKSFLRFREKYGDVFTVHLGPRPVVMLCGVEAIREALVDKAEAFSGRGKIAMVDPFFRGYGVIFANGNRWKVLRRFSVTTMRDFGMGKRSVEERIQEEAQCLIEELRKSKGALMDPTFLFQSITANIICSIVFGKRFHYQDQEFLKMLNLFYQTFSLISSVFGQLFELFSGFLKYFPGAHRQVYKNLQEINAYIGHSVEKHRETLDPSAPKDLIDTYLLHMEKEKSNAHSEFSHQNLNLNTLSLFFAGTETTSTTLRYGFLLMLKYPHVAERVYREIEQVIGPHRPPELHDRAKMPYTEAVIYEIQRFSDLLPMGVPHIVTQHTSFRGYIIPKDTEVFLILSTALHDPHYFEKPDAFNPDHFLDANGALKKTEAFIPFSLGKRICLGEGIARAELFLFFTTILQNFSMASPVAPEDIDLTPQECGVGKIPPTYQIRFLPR
Briefly: Inhibition of CYP2B6 in human liver microsomes at 10 uM by LC-MS/MS analysis relative to control. Type of series: ADME, Microsome.

Series [8] deals with T1, CYP3A. The experiment in a line: Inhibition of CYP3A in human liver microsomes using midazolam as substrate at 10 uM by LC-MS/MS analysis relative to control. Type of series: ADME, Microsome. The following applies: probe midazolam.
Series [9] concerns the target T3, CYP2C8. Briefly: Inhibition of CYP2C8 in human liver microsomes at 10 uM by LC-MS/MS analysis relative to control. Type of series: ADME, Microsome.
Series [10] in a line: Fraction unbound in human. Type of series: ADME.
The target in series [11] is T2, CYP2C19. The experiment in a line: Time dependent inhibition of CYP2C19 in human liver microsomes at 10 uM by LC-MS/MS analysis relative to control. Type of series: ADME, Microsome. The note with it: read-out: TDI.
A further series concerns the target Stromelysin-1 (Homo sapiens, UniProt P08254). The experiment in a line: Inhibition of recombinant human MMP3 assessed as enzyme activity by measuring fluorescence using fluorogenic peptide substrate.
Series [12] is described as follows: Inhibition of recombinant mouse MMP1 assessed as enzyme activity by measuring fluorescence using fluorogenic peptide substrate.
The nature of series [13]: Chemical stability of the compound in pH 7.4 aqueous solution assessed as degradation by measuring residual rate incubated for 24 hrs at 65 degC by HPLC analysis. Type of series: physicochemical. The following applies: read-out: Activity.
The target in series [14] is Matrix metalloproteinase-14 (Homo sapiens, UniProt P50281). Briefly: Inhibition of recombinant human MMP14 assessed as enzyme activity by measuring fluorescence using fluorogenic peptide substrate.
Series [15] addresses Matrix metalloproteinase-9 (Homo sapiens, UniProt P14780). Briefly: Inhibition of recombinant human MMP9 assessed as enzyme activity by measuring fluorescence using fluorogenic peptide substrate.

For orientation: fraction unbound means the share of the substance not bound to proteins or other matrix. The low end stands for extensive binding, the high end for weak binding. For orientation: IC50 means the concentration that inhibits the measured activity by half.

T2 sequence (P33261 whole entry): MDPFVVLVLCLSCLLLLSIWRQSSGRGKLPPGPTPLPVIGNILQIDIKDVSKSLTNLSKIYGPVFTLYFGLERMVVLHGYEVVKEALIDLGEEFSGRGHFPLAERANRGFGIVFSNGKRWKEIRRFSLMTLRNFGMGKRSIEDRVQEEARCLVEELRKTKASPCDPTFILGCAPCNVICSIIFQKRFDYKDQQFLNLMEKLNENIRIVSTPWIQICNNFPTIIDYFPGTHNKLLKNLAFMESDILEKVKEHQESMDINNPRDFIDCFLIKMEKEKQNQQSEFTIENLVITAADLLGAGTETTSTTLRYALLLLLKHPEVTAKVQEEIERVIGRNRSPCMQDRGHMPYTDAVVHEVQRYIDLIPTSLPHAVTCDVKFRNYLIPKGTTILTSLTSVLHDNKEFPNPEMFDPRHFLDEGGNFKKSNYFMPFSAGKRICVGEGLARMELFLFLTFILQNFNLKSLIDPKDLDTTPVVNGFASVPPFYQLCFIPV
Sequence of Stromelysin-1 (P08254 whole entry): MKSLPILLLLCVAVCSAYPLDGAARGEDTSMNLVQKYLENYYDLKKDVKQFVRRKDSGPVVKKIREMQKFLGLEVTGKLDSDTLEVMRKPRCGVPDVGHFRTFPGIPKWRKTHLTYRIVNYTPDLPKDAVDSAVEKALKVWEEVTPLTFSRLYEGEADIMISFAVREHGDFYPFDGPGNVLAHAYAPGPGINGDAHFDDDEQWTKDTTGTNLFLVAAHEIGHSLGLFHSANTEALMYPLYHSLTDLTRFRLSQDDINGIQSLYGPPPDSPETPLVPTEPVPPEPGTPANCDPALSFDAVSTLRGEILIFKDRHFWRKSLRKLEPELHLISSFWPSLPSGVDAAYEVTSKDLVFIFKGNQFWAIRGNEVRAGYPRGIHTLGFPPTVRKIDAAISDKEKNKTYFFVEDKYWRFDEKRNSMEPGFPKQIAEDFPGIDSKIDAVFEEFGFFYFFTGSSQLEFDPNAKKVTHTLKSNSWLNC
Sequence of Matrix metalloproteinase-9 (P14780 whole entry): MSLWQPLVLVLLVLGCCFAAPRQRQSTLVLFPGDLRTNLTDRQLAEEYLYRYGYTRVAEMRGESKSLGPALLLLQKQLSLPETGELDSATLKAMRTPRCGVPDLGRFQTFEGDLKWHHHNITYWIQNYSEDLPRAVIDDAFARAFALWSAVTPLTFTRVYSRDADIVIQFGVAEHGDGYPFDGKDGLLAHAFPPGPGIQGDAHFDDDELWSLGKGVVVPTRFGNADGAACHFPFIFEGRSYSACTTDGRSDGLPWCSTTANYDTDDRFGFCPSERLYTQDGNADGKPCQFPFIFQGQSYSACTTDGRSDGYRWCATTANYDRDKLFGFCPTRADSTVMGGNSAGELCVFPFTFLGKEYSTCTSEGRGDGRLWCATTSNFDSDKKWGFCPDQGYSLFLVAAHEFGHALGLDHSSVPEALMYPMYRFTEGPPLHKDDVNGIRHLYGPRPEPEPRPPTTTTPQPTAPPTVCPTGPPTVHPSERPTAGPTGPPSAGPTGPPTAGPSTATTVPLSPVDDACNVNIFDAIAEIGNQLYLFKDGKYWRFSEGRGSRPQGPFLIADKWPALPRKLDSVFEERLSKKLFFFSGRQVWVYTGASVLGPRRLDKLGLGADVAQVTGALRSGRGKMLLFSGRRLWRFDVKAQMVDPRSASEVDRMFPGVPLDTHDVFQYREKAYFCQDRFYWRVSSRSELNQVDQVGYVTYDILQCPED
Sequence of Voltage-gated inwardly rectifying potassium channel KCNH2 (Q12809 whole entry): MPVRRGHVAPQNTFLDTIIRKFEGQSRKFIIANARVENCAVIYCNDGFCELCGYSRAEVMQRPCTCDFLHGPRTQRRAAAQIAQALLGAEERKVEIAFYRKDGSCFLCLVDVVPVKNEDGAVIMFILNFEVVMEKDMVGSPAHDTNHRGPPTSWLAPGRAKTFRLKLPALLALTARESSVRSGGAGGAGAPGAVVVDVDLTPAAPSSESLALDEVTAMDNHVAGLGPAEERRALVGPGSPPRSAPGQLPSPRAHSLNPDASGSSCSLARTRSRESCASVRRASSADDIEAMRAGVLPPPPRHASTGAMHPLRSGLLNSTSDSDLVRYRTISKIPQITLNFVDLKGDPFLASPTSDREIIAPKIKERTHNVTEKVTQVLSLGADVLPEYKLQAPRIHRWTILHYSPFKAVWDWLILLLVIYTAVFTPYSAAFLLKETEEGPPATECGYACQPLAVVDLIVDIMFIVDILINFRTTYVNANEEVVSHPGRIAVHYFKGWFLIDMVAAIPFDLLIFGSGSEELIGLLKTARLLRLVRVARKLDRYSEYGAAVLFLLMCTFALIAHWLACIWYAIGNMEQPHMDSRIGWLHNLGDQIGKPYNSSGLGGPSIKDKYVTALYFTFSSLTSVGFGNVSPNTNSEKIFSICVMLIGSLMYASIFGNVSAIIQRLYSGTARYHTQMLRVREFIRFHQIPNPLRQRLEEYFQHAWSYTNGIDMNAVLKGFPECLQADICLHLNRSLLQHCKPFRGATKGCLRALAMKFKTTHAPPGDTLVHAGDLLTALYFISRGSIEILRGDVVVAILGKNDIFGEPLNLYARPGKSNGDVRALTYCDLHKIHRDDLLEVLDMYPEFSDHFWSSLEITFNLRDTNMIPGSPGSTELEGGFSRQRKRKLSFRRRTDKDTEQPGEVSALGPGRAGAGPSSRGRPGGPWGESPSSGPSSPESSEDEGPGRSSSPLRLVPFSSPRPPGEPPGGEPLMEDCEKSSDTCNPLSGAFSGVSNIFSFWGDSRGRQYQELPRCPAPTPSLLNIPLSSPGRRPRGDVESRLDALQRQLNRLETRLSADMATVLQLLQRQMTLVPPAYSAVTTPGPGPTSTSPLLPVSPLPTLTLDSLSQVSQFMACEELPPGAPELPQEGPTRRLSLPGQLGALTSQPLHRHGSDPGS
Sequence of Neutrophil collagenase (P22894 whole entry): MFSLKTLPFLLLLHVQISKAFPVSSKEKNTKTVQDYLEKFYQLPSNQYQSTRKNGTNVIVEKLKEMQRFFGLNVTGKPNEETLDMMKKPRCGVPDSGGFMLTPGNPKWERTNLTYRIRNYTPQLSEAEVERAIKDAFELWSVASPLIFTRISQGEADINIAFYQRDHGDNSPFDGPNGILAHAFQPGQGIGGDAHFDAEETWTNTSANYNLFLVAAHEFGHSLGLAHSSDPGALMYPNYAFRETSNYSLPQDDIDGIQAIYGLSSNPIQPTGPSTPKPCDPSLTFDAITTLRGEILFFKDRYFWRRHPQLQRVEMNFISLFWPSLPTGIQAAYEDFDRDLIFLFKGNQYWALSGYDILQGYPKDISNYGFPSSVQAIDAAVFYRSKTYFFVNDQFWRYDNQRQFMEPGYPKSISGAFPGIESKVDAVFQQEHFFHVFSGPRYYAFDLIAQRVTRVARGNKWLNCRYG

`CC(C)(C)[C@H](NC(=O)[C@H](Cc1ccncc1)NC(=O)CNC(=O)CC[C@H](NS(=O)(=O)c1ccc(Cl)c(C(F)(F)F)c1)C(=O)O)C(=O)Nc1ccc(C(=O)N2CCC(C(=O)N[C@H](CCCCN)C(=O)N3CC[C@H](N)C3)CC2)cc1`: the “Cp(f)” value amounted to 31 nM in [1] and 15.6 nM in series [7]. For the same compound, the inhibition at 10 µM was -5.2% at CYP3A [2]; -4.3% against CYP2C19 [4]; 9.1% on CYP2C8 [5]; 3.2% against CYP1A2; -6.6% against CYP2B6; 6% against CYP3A [8]. In addition, the inhibition at 10 µM against CYP2C8 [9] was 14.4%; at CYP2C19 [11], 4.8%. The values for the fraction unbound in [3] and in [10] were 0.178 and 0.135, respectively. For the same compound, the IC50 on Collagenase 3 was above 10 µM; on Neutrophil collagenase it was above 10 µM; on Stromelysin-1, above 10 µM; in series [12] it was 0.0041 µM; in series [14], 1.7 µM; in series [15], above 10 µM. Also, in series [6], the “inhibition (INH)” value was “Not Active”. In the series with Mus musculus, the result was Active. Moreover, the remaining at 24 h in [13] is 97.9%.
